# Measurements published in patent US12600696B2 (XENIOPRO GMBH, priority 2017, dated 2026).
# System: HL-60 cells (human acute myeloid leukemia cells)
# Experiment: alamarBlue proliferation assay with HL-60 cells
# Format: cell-based
# Conditions: 120 h, 5 days, relative to DMSO baseline level of 1.0, read-out: AVEw, weighted arithmetic mean of normalized fluorescence intensity values (Activity Range), HL-60 proliferation
# Experimental: The antiproliferative activities of compounds falling under formula I, formula II, formula III, formula IV and formula V were investigated on cells or cell lines originating from a disorder of the myeloid cell compartment, the neuroendocrine system, the cervix, and the mucosal epithelium, as well as from the skin epithelium. To this end, HL-60 cells, TT cells, HeLa cells, CAL-27 cells and human primary epidermal keratinocytes (HPEK) were seeded into 96-well plates suitable for fluorescence assays (CORNING #3598) at following initial cell numbers: 1000 cells per well for HL-60; 9000 cells per well for TT; 2000 cells per well for HeLa, 2000 cells per well for CAL-27, 2000 cells per well for HPEK. The cells were treated with compounds at indicated final concentrations (diluted from the 1000× stock-solutions in DMSO to a final DMSO concentration of 0.1% v/v) or with the empty carrier DMSO at 0.1% v/v as control for 5 days. At day 5 after starting the treatments the cells were subjected to the alamarBlue® Proliferation Assay (Bio-Rad Serotec GmbH, BUF012B) according to the protocol of the manufacturer. The readout was taken with a multi-well plate-reader in the fluorescence mode with applying a filter for excitation at 560 nm (band width 10 nm) and for emission at 590 nm (band width 10 nm). Resveratrol (RES) treatment was included as control for growth inhibition.
# The assays were performed in duplicate or more replicates of independent single experiments each containing a six-fold replicate for every condition. For every individual plate, the measured fluorescence intensity values of the conditions with compound treatment were normalized against the corresponding equally weighted arithmetic mean of the fluorescence intensity values of the six DMSO treated control wells in order to obtain the relative values to a baseline level of 1.0. The statistical calculations were performed in analogy to the luciferase assay as described above. To this end, two independent outlier analyses were performed according to the methods by Peirce and Chauvenet (Ross, Journal of Engineering Technology 2003, 1-12). Outliers confirmed by at least one of the methods were excluded from the calculations but not more than one value out of six per compound within a single experiment. The weighted arithmetic mean AVEw for each compound was calculated from the normalized values over all independent replicates of the single experiments comprising the six replicates each. The corresponding standard deviation for the weighted arithmetic mean was calculated according to the method described by Bronstein et al. (Bronstein, Semendjajew, Musiol, Mühlig, Taschenbuch der Mathematik, 5th edition 2001 (German), publisher: Verlag Harri Deutsch, Frankfurt am Main and Thun) and was combined with the Gauß′ error propagation associated with the performed calculation for the normalization. The resulting standard deviation is herein referred to as “combined standard deviation”.
# HL-60 cells were cultivated according to the protocol of the provider in RPMI 1640 medium (Fisherscientific, #11554526) containing 10% fetal bovine serum (Fisherscientific, #15517589).
# A compound is considered as a growth inhibitor of HL-60 cells, if—at a reference concentration of 20 μM—the weighted arithmetic mean of the normalized fluorescence intensity values after addition of the corresponding combined standard deviation amounts to 0.9 or lower, in particular to 0.8 or lower, 0.7 or lower, 0.6 or lower, 0.4 or lower, and 0.2 or lower, relative to the overall basis level of 1.0. The overall basis level was calculated as the weighted arithmetic mean of all normalized values from the DMSO control measurements in analogy to the calculations performed for the test-compounds. The corresponding combined standard deviation for the DMSO values amounts to less than 1·10^−2.
row,SMILES,activity at 20 µM [%]
1,"O=C(O)c1ccc(Oc2ccc(C3(C(F)(F)F)CC3)cc2Cl)nc1 [Compound 738, 6-(2-chloro-4-(1-(trifluoromethyl)cyclopropyl)phenoxy)nicotinic acid]",80 to 90
2,"COC(=O)c1ccc(Oc2ccc(C3(C(F)(F)F)CC3)cc2)nc1 [Compound 739, methyl 6-(4-(1-(trifluoromethyl)cyclopropyl)phenoxy)nicotinate]",80 to 90
3,"COC(=O)c1ccc(Oc2ccc(C3(C(F)(F)C(F)(F)F)CC3)cc2)nc1 [Compound 740, methyl 6-(4-(1-(perfluoroethyl)cyclopropyl)phenoxy)nicotinate]",80 to 90
4,"CCOC(=O)c1ccc(Oc2ccc(C3(C(F)(F)F)CC3)cc2Cl)nc1 [Compound 756, ethyl 6-(2-chloro-4-(1-(trifluoromethyl)cyclopropyl)phenoxy)nicotinate]",70 to 80
5,"CN(C)C(=O)c1ccc(Oc2ccc(C3(C(F)(F)C(F)(F)F)CC3)cc2)cc1 [Compound 785, N,N-dimethyl-4-(4-(1-(perfluoroethyl)cyclopropyl)phenoxy)benzamide]",70 to 80
6,"CN(C)C(=O)c1ccc(Oc2ccc(C3(C(F)(F)F)CC3)cc2)c(F)c1 [Compound 786, 3-fluoro-N,N-dimethyl-4-(4-(1-(trifluoromethyl)cyclopropyl)phenoxy)benzamide]",70 to 80
7,"CN(C)C(=O)c1ccc(Oc2ccc(C3(C(F)(F)F)CC3)cc2Cl)cc1 [Compound 792, 4-(2-chloro-4-(1-(trifluoromethyl)cyclopropyl)phenoxy)-N,N-dimethylbenzamide]",80 to 90
8,"NC(=O)c1ccc(Oc2ccc(C3(C(F)(F)F)CC3)cc2)nc1 [Compound 793, 6-(4-(1-(trifluoromethyl)cyclopropyl)phenoxy)nicotinamide]",80 to 90
9,CNC(=O)c1ccc(Oc2ccc(C3(C(F)(F)F)CC3)cc2)nc1 [Compound 811],80 to 90
10,"CN(C)C(=O)c1ccc(Oc2ccc(C3(C(F)(F)C(F)(F)F)CC3)cc2)nc1 [Compound 821, N,N-dimethyl-6-(4-(1-(perfluoroethyl)cyclopropyl)phenoxy)nicotinamide]",60 to 70
